Values of other authors as cited in patent US20060275294A1, “METHOD OF PREVENTION AND TREATMENT OF AGING, AGE-RELATED DISORDERS AND/OR AGE-RELATED MANIFESTATIONS INCLUDING ATHEROSCLEROSIS, PERIPHERAL VASCULAR DISEASE, CORONARY ARTERY DISEASE, OSTEOPOROSIS, ARTHRITIS, TYPE 2 DIABETES, DEMENTIA, ALZHEIMERS DISEASE AND CANCER” (priority 2002, published 2006).
Where two headings read alike, the source gives them in different places.

Legend:
[1] = test system: sIL6R; conditions: four-day dietary intervention, exchange for LA; cited from earlier work
[2] = test system: rat models; conditions: meta-analysis of 13 studies; cited from earlier work
[3] = test system: esophageal carcinoma cell line CE48T/VGH; conditions: cited from earlier work
[4] = test system: rat vascular smooth muscle cells; conditions: cited from earlier work
[5] = test system: leukemic cells; conditions: concentration- and time-dependent; cited from earlier work
[6] = test system: animals with experimental arthritis; conditions: prophylactic or therapeutic treatment; cited from earlier work
[7] = test system: NOD/SCID mice engrafted with human primary leukemic cells; conditions: mouse, in vivo; cited from earlier work
[8] = test system: MCF-7 breast cancer cells; conditions: absence of estradiol; cited from earlier work
[9] = test system: patients with primary hypercholesterolemia; conditions: cited from earlier work
[10] = test system: patients with type 2 diabetes; conditions: cited from earlier work
[11] = 80 mg daily; cited from earlier work
[12] = test system: human T, B and myeloma tumor cells; conditions: by promoting apoptosis; cited from earlier work
[13] = test system: KK/Ay mice; conditions: mouse, in vivo; cited from earlier work
[14] = test system: Zucker lean and fatty rats; conditions: 50 mg/kg/day vs vehicle; cited from earlier work
[15] = test system: in-patients with advanced (stage III) Huntington's disease; conditions: 6 months; cited from earlier work
[16] = in vivo, sc; cited from earlier work
[17] = test system: aortic strips isolated from virgin and late pregnant Sprague-Dawley rats; conditions: 1,000 pg/ml, cited from earlier work

CC/C=C\C/C=C\C/C=C\CCCCCCCC(=O)O [ALA, alpha-linolenic acid]
reduction of fasting sIL6R concentration [1]: approximately 11%
ischemia- and reperfusion-induced arrhythmias (incidence of VT and VF) [2]: not

COc1cccc(-c2cc(=O)c3ccccc3o2)c1N [PD98059]
protection of IL-6 against apoptosis [3]: completely blocked
expression of IL-6 mRNA induced by Ang II [4]: completely abolished

O=P(O)(O)C(O)(Cc1cnc2ccccn12)P(=O)(O)O [YM529]
growth of leukemic cells incl. P-gp over-expressing cell line [5]: inhibited the growth
severity of experimental arthritis [6]: suppressed the severity of disease
survival [7]: prolonged the survival

CC(C)c1c(C(=O)Nc2ccccc2)c(-c2ccccc2)c(-c2ccc(F)cc2)n1CC[C@@H](O)C[C@@H](O)CC(=O)O [atorvastatin]
proliferation of MCF-7 cells [8]: inhibit the proliferation
FMD ([9]; 2 weeks): higher than baseline
IL-6 levels ([9]; 3 and 9 months vs baseline): significantly reduced
sICAM-1 levels ([9]; FH 80 mg/day, NFH 10 mg/day, 2 weeks to 9 months vs baseline): significantly reduced
relative risk reduction in the primary endpoint ([10]; 10 mg daily for four years): 37%
rate reduction of major cardiovascular events ([10]; 10 mg daily vs placebo): 37%
patients with at least one major cardiovascular event ([10]; 10 mg daily, n=1428, median follow-up 3.9 years): 83
acute coronary heart disease events reduced ([10]; 10 mg daily): 36%
adverse events ([10]; 10 mg daily): No excess of adverse events
coronary re-vascularisations reduced ([10]; 10 mg daily): 31%
death rate reduced ([10]; 10 mg daily): 27%
major cardiovascular event rate ([10]; 10 mg daily): 1.54 per 100 person-years at risk
rate of stroke reduced ([10]; 10 mg daily): 48%
carotid IMT [11]: significant IMT regression
effect on human T, B and myeloma tumor cells [12]: cytotoxic effect
insulin resistance index [13]: decreased
non-HDL-cholesterol level [13]: significantly decreased
increase in glucose infusion rate and glucose disposal (Rd) [14]: approximately two-fold

CC/C=C\C/C=C\C/C=C\C/C=C\C/C=C\CCCC(=O)OCC [ethyl-EPA, ethyl-ester of eicosapentaenoic acid]
orofacial component of the Unified Huntington's Disease Rating Scale [15]: improved

IL-6: interleukin-6 cytokine
adverse effects of subcutaneous administration [16]: cardiac arrhythmias, hepatotoxicity
enhancement of Phe contraction ([17]; pregnant rats): 10.6±0.7 ×104 N/m2
enhancement of Phe contraction ([17]; virgin rats): 7.5±0.4 ×104 N/m2
